Literature values in patent US20190008832A1, “COMPOSITIONS FOR THE TREATMENT OF PRESBYOPIA” (priority 2015, published 2019).

Test system: eye

Q: What does the source list for `CC[C@@H]1C(=O)OC[C@@H]1Cc1cncn1C` [pilocarpine]?
A: Side effects in some patients (WO2008/075149 compositions: pilocarpine HCl 1% and diclofenac sodium 0.5%): causes diarrhea and dyspepsia; Percentage of pilocarpine necessary to be effective in the treatment of presbyopia (single active ingredient in a topical composition): greater than 0.5 % by weight; Tolerability of pilocarpine at percentages higher than 0.5% by weight (topical, reddening of the eye, ocular and forehead pain, headaches): not tolerated
